For assay [1], the target named is T1, steroid sulphatase (STS) (Homo sapiens, UniProt P08842).
T1 sequence (P08842 22-583): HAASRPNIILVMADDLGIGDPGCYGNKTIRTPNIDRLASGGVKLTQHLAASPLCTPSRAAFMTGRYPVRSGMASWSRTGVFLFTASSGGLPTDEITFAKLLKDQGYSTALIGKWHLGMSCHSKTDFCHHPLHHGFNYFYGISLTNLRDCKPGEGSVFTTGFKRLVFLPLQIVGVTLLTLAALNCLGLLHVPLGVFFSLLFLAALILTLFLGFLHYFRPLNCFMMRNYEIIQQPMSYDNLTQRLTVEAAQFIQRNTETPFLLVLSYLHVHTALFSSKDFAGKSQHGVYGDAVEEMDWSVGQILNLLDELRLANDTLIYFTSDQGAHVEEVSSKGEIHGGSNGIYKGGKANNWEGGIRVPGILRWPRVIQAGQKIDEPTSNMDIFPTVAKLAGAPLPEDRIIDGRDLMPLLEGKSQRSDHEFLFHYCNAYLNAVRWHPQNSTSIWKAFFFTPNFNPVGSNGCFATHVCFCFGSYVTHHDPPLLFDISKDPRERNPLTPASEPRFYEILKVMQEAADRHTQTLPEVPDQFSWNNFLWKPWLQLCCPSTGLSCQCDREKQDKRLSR
The assay is described as follows: Inhibition of steroid sulphatase activity in placental microsomes, Protocol 4. The class given is biochemical. As for the experimental part: Sulphatase-positive human placenta from normal term pregnancies are thoroughly minced with scissors and washed once with cold phosphate buffer (pH 7.4, 50 mM) then resuspended in cold phosphate buffer (5 ml/g tissue). Homogenisation is accomplished with an Ultra-Turrax homogeniser, using three 10 second bursts separated by 2 minute cooling periods in ice. Nuclei and cell debris are removed by centrifuging (4° C.) at 2000 g for 30 minutes and portions (2 ml) of the supernatant are stored at […] The protein concentration of the supernatants is determined by the method of Bradford (Anal. Biochem., 72, 248-254 (1976)).
Incubations (1 ml) are carried out using a protein concentration of […], substrate concentration of […] [6,7-3H]oestrone-3-sulphate (specific activity 60 Ci/mmol from New England Nuclear, Boston, Mass., U.S.A.) and an incubation time of 20 minutes at 37° C. If necessary eight concentrations of compounds are employed: 0 (i.e. control); 0.05 mM; 0.1 mM; 0.2 mM; 0.4 mM; 0.6 mM; 0.8 mM; 1.0 mM. After incubation each sample is cooled and the medium (1 ml) was pipetted into separate tubes containing [14C]oestrone (7×10^3 dpm) (specific activity 97 Ci/mmol from Amersham International Radiochemical Centre, Amersham, U.K.). The mixture is shaken thoroughly for 30 seconds with toluene (5 ml). Experiments have shown that >90% [14C]oestrone and <0.1% [3H]oestrone-3-sulphate is removed from the aqueous phase by this treatment. A portion (2 ml) of the organic phase was removed, evaporated and the 3H and 14C content of the residue determined by scintillation spectrometry. The mass of oestrone-3-sulphate hydrolysed is calculated from the 3H counts obtained (corrected for the volumes of the medium and organic phase used, and for recovery of [14C]oestrone added) and the specific activity of the substrate.
(§1) The STS inhibition provided by the compounds was determined in accordance with the placental microsomes assay of Protocol 4 and a plate assay.

In assay [2] the test system is MCF7, CAL51, CAMA1 and ZR-75-1 breast cancer derived cell lines. In words: Cell cycle and apoptosis analysis in breast cancer cell lines. Format: cell-based, human. As for the experimental part:
MCF7, CAL51, CAMA1 and ZR-75-1 breast cancer derived cell lines were obtained from ATCC (MCF7, CAMA1, ZR-75-1) or from the Dutrillaux laboratory (CAL51) (22) and maintained in Dulbecco's modified Eagle's medium (DMEM) supplemented with 10% (v/v) fetal calf serum and antibiotics.
DNA content was determined by flow cytometric analysis of propidium iodide stained cells and TdT-mediated dUTP-nick end labelling (TUNEL), respectively, as described (20). The proportion of cells in G2/M phase of the cell cycle was calculated as a proportion of cells with […] DNA content. The proportion of cells with <G1 DNA content was calculated as a percentage of total cells.
To determine the proportion of cells in mitosis, drug treated cells were collected by trypsinisation and cytospins prepared. Cells were fixed in ice cold methanol for 5 minutes, air dried and DNA was stained using propidium iodide (PI) (0.1 mg/ml in phosphate buffered saline (PBS) containing 10% (v/v) newborn calf serum and 0.05% (w/v) sodium azide). Cells were analysed by confocal microscopy using a Zeiss Axiovert 100 M microscope equipped with the LSM 510 confocal system (Zeiss, Jena, Germany).
We examined whether the differential sensitivity of breast cancer cell lines to the growth inhibitory effects of the compounds of the present invention.

The subject of assay [3] is STS. In words: Plate assay, % inhibition. The class given is biochemical. On the procedure:
as §1

Assay [4] deals with uterus. The note with it: cited from earlier work.
Assay [5] concerns the target CuZnSOD (UniProt P00442). In words: Superoxide dismutase (SOD) spectrophotometric XTT assay, Protocol 1. The conditions noted are these: xanthine oxidase/XTT, 24° C., 30 minutes, read-out: IC 50/μM (+/− SEM) SOD Inhibition. Format: biochemical.
Procedure: In this reaction, 3′-{1-[(phenylamino)-carbonyl]-3,4-tetrazolium}-bis(4-methoxy-6-nitro)benzenesulfonic acid hydrate (XTT) is converted to a colourimetric product by the action of superoxide ions (produced by xanthine oxidase (XO) and xanthine). Production of superoxide ions is inhibited by SOD resulting in decreased product. The ability of test compounds to inhibit SOD is measured by their ability to restore production of the coloured product. Reactions were performed in a total volume of 0.1 ml of buffer A (42 mM Na2CO3 (pH 9.4), 0.1 mM xanthine (Sigma), 0.1 mM EDTA, 0.026 mM XTT (Sigma)).
The reaction was incubated at 24° C. for 30 minutes and products determined by measuring absorobance at 470 nm. All determinations were made in duplicate/triplicate.
SOD activity was measured in accordance with Protocol 1.
Initial analyses were performed using test compounds at 100 μM.
For assay [6], the target named is T2, steroid sulphatase (Homo sapiens, UniProt P08842).
T2 sequence (P08842 22-583): T1 sequence (P08842 22-583)
The conditions noted are these: cited from earlier work.

For assay [7], the target named is T3, rat liver E1-STS (Rattus norvegicus, UniProt P15589).
T3 construct: from tissue; host or cells: rat liver (after oral or subcutaneous dosing)
T3 sequence (P15589 20-577): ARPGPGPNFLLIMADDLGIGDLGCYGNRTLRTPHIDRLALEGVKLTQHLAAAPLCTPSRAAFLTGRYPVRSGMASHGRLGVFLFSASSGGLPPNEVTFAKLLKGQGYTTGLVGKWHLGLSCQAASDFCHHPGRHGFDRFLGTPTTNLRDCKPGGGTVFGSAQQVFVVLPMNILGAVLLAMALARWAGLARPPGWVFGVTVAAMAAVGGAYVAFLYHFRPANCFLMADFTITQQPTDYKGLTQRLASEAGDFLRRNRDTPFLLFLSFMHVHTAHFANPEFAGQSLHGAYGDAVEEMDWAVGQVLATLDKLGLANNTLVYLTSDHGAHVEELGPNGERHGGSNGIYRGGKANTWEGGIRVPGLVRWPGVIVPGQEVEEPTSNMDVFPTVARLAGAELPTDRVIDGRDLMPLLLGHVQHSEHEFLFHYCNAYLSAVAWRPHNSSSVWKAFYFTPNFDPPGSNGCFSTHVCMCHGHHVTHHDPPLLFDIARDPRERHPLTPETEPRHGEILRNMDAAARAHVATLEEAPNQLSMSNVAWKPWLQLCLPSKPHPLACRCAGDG
The conditions noted are these: administered either orally or subcutaneously; cited from earlier work.

Assay [8] has as its target T4, DHA-STS (Rattus norvegicus, UniProt P15589).
T4 construct: from tissue; host or cells: rat liver (after oral or subcutaneous dosing)
T4 sequence (P15589 20-577): T3 sequence (P15589 20-577)
The conditions noted are these: administered either orally or subcutaneously; cited from earlier work.

Some results are limits rather than exact numbers.

For orientation: inhibition means the share of the control response that was lost under treatment.

The compound `CSc1cc2c(cc1OS(N)(=O)=O)CCC1C2CC[C@]2(C)C(=O)CCC12` (stereo partly shown) [Compound 36] showed an IC50 in assay [1] (placental microsomes) of 0.12 µM. Besides, in assay [1] (read-out: Placental Microsomes, % inhibition 1 μM), the inhibition at 1 µM is 86.9%. Also, in assay [2], the “Effect on cell morphology (rounding, detachment)” value is “induced cells to become rounded and detached from the plate/flask”. Further, the “Plate Assay, % inhibition 0.1 μM” value in assay [3] (0.1 μM) is 3%. Also, the “Plate Assay, % inhibition 1 μM” value in assay [3] (1 μM) was 53%. Besides, the “Plate Assay, % inhibition 10 μM” value in assay [3] (10 μM) is listed as 55%.
On to `COc1cc2c(cc1OS(N)(=O)=O)CC[C@@H]1[C@@H]2CC[C@]2(C)C(=O)CC[C@@H]12` [Compound 25, 2-methoxyestrone-3-O-sulphamate], for which the oestrogenicity entry in assay [4] (rat, in vivo) is “devoid of oestrogenicity”. Also, the IC50 in assay [5] was > 100 µM. In addition, the “potency as a steroid sulphatase inhibitor compared with EMATE” value in assay [6] is “equipotent with EMATE”.
In the case of `CC12CCC3c4ccc(OS(N)(=O)=O)cc4CCC3C1CCC2=O` (stereo not shown) [Compound 24, estrone-3-O-sulphamate, reference compound], the “oral uterotrophic activity in rats relative to estradiol” value in assay [4] (oral, rats, higher than that of estradiol) is on record as 100 times. Also, the “inhibition of rat liver E1-STS activity” value in assay [7] was 99%. Besides, the IC50 in assay [5] was > 100 µM. Further, in assay [8], the “inhibition of rat liver DHA-STS activity” value is given as 99%.
